Test results reported in patent US4388311A, “Method for the induction of menses” (G. D. Searle & Co., priority 1982, dated 1983).
Values joined by “and” are separate entries in the source; they are usually repeats but may differ in a detail not shown here. Identical values can stand only once.

Assays:
pregnancy in rats [1] = assay: Pregnancy termination in rats, compounds administered intragastrically for four days (Table 1); type: in vivo, rat; conditions: for Serum Progesterone ng/ml + S.E. / Serum Progesterone (Percent Control): serum day 11, 24 hours after initial injection
Procedure: (§1) The following tables list the results for a compound of Formula IV as compared with a control of previously known 2α-cyano-17β-hydroxy-3-oxo-4,4,17α-trimethylandrost-5-end(Cyanoketone) for termination of pregnancy.
^1 Compounds were administered intragastrically once daily on days 10
through 13 of pregnancy in a vehicle consisting of PEG400, propylene
glycol and 100 percent ethanol (50:40:10, v:v:v). Serum for progesterone
determination was drawn on day 11 of pregnancy, 24 hours after the initia
injection of compound. The animals were autopsied on day 14 of pregnancy.

pregnancy in rats [2] = assay: Termination of pregnancy in rats, compounds administered subcutaneously (Table 2); type: in vivo, rat; conditions: for Serum Progesterone (Percent Control) / Serum Progesterone ng/ml + S.E.: serum day 11, 24 hours after initial injection
Procedure: as §1
^1 Compounds given subcutaneously in corn oil vehicle once daily on
days 10 through 13 of pregnancy. Serum for progesterone determination was
drawn on day 11 of pregnancy, 24 hours after the initial injection of
compound. The animals were autopsied on day 14 of pregnancy.
^2 Serum progesterone values determined by RIA at Interlab Associates

[3] = 1 mg/kg/day intragastrically once daily days 10-13 of pregnancy, autopsy day 14
[4] = 2 mg/kg/day intragastrically days 10-13 of pregnancy
[5] = 2 mg/kg/day intragastrically once daily days 10-13 of pregnancy, autopsy day 14
[6] = 4 mg/kg/day intragastrically days 10-13 of pregnancy, 4 mg/kg/day
[7] = 4 mg/kg/day intragastrically once daily days 10-13 of pregnancy, autopsy day 14, 4 mg/kg/day
[8] = 8 mg/kg/day intragastrically days 10-13 of pregnancy
[9] = 8 mg/kg/day intragastrically once daily days 10-13 of pregnancy, autopsy day 14
[10] = 16 mg/kg/day intragastrically days 10-13 of pregnancy
[11] = 16 mg/kg/day intragastrically once daily days 10-13 of pregnancy, autopsy day 14
[12] = 32 mg/kg/day intragastrically days 10-13 of pregnancy
[13] = 32 mg/kg/day intragastrically once daily days 10-13 of pregnancy, autopsy day 14
[14] = 64 mg/kg/day intragastrically days 10-13 of pregnancy
[15] = 64 mg/kg/day intragastrically once daily days 10-13 of pregnancy, autopsy day 14
[16] = 128 mg/kg/day intragastrically days 10-13 of pregnancy
[17] = 128 mg/kg/day intragastrically once daily days 10-13 of pregnancy, autopsy day 14
[18] = 1 mg/kg/day subcutaneously days 10-13 of pregnancy
[19] = 1 mg/kg/day subcutaneously in corn oil once daily days 10-13 of pregnancy, autopsy day 14
[20] = 2 mg/kg/day subcutaneously days 10-13 of pregnancy

SMILES: CC1(C)C(=O)[C@H](C#N)C[C@@]2(C)C1=CC[C@@H]1[C@@H]2CC[C@@]2(C)[C@H]1CC[C@]2(C)O [Cyanoketone, 2α-cyano-17β-hydroxy-3-oxo-4,4,17α-trimethylandrost-5-end]
- Serum Progesterone ng/ml + S.E. (pregnancy in rats [1]; 1 mg/kg/day intragastrically days 10-13 of pregnancy): 47.3 + 3.5 ng/ml
- Adrenal Wt. mg + SE (pregnancy in rats [1]; [3]): 74.9 + 4.1 mg
- Fetal Viability: Normal Fetuses/Implantation Sites (pregnancy in rats [1]; [3]): 49/54
- Fetal Viability: Normal Fetuses/Implantation Sites (Percent) (pregnancy in rats [1]; [3]): 91%
- Number of Rats Pregnant/Number of Rats Treated (pregnancy in rats [1]; [3]): 5/5
- Number of Rats Pregnant/Number of Rats Treated (Percent) (pregnancy in rats [1]; [3]): 100%
- Serum Progesterone (Percent Control) (pregnancy in rats [1]; [4]): 111 Percent Control
- Serum Progesterone ng/ml + S.E. (pregnancy in rats [1]; [4]): 52.5 + 3.7 ng/ml
- Adrenal Wt. mg + SE (pregnancy in rats [1]; [5]): 77.1 + 5.3 mg
- Fetal Viability: Normal Fetuses/Implantation Sites (pregnancy in rats [1]; [5]): 61/84
- Fetal Viability: Normal Fetuses/Implantation Sites (Percent) (pregnancy in rats [1]; [5]): 73%
- Number of Rats Pregnant/Number of Rats Treated (pregnancy in rats [1]; [5]): 6/7
- Number of Rats Pregnant/Number of Rats Treated (Percent) (pregnancy in rats [1]; [5]): 86%
- Serum Progesterone (Percent Control) (pregnancy in rats [1]; [6]): 75 Percent Control and 72 Percent Control
- Serum Progesterone ng/ml + S.E. (pregnancy in rats [1]; [6]): 35.5 + 6.2 ng/ml and 33.8 + 3.8 ng/ml
- Adrenal Wt. mg + SE (pregnancy in rats [1]; [7]): 75.0 + 3.5 mg and 76.9 + 3.7 mg
- Fetal Viability: Normal Fetuses/Implantation Sites (pregnancy in rats [1]; [7]): 0/92 and 44/97
- Number of Rats Pregnant/Number of Rats Treated (pregnancy in rats [1]; [7]): 1/8 and 5/8
- Serum Progesterone (Percent Control) (pregnancy in rats [1]; [8]): 64 Percent Control
- Serum Progesterone ng/ml + S.E. (pregnancy in rats [1]; [8]): 30.2 + 3.8 ng/ml
- Adrenal Wt. mg + SE (pregnancy in rats [1]; [9]): 65.7 + 2.5 mg
- Fetal Viability: Normal Fetuses/Implantation Sites (pregnancy in rats [1]; [9]): 13/110
- Fetal Viability: Normal Fetuses/Implantation Sites (Percent) (pregnancy in rats [1]; [9]): 12%
- Number of Rats Pregnant/Number of Rats Treated (pregnancy in rats [1]; [9]): 3/10
- Number of Rats Pregnant/Number of Rats Treated (Percent) (pregnancy in rats [1]; [9]): 30%
- Serum Progesterone (Percent Control) (pregnancy in rats [1]; [10]): 88 Percent Control
- Serum Progesterone ng/ml + S.E. (pregnancy in rats [1]; [10]): 41.4 + 7.1 ng/ml
- Adrenal Wt. mg + SE (pregnancy in rats [1]; [11]): 74.5 + 3.1 mg
- Fetal Viability: Normal Fetuses/Implantation Sites (pregnancy in rats [1]; [11]): 25/103
- Fetal Viability: Normal Fetuses/Implantation Sites (Percent) (pregnancy in rats [1]; [11]): 24%
- Number of Rats Pregnant/Number of Rats Treated (pregnancy in rats [1]; [11]): 4/10
- Number of Rats Pregnant/Number of Rats Treated (Percent) (pregnancy in rats [1]; [11]): 40%
- Serum Progesterone (Percent Control) (pregnancy in rats [1]; [12]): 67 Percent Control
- Serum Progesterone ng/ml + S.E. (pregnancy in rats [1]; [12]): 31.5 + 6.7 ng/ml
- Adrenal Wt. mg + SE (pregnancy in rats [1]; [13]): 66.4 + 3.3 mg
- Fetal Viability: Normal Fetuses/Implantation Sites (pregnancy in rats [1]; [13]): 19/101
- Fetal Viability: Normal Fetuses/Implantation Sites (Percent) (pregnancy in rats [1]; [13]): 19%
- Number of Rats Pregnant/Number of Rats Treated (pregnancy in rats [1]; [13]): 2/9
- Number of Rats Pregnant/Number of Rats Treated (Percent) (pregnancy in rats [1]; [13]): 22%
- Serum Progesterone (Percent Control) (pregnancy in rats [1]; [14]): 40 Percent Control
- Serum Progesterone ng/ml + S.E. (pregnancy in rats [1]; [14]): 19.0 + 3.7 ng/ml
- Adrenal Wt. mg + SE (pregnancy in rats [1]; [15]): 83.5 + 4.8 mg
- Fetal Viability: Normal Fetuses/Implantation Sites (pregnancy in rats [1]; [15]): 24/128
- Fetal Viability: Normal Fetuses/Implantation Sites (Percent) (pregnancy in rats [1]; [15]): 19%
- Number of Rats Pregnant/Number of Rats Treated (pregnancy in rats [1]; [15]): 2/11
- Number of Rats Pregnant/Number of Rats Treated (Percent) (pregnancy in rats [1]; [15]): 18%
- Serum Progesterone (Percent Control) (pregnancy in rats [1]; [16]): 94 Percent Control
- Serum Progesterone ng/ml + S.E. (pregnancy in rats [1]; [16]): 44.3 + 5.3 ng/ml
- Adrenal Wt. mg + SE (pregnancy in rats [1]; [17]): 72.0 + 2.5 mg
- Fetal Viability: Normal Fetuses/Implantation Sites (pregnancy in rats [1]; [17]): 85/99
- Fetal Viability: Normal Fetuses/Implantation Sites (Percent) (pregnancy in rats [1]; [17]): 85%
- Number of Rats Pregnant/Number of Rats Treated (pregnancy in rats [1]; [17]): 8/9
- Number of Rats Pregnant/Number of Rats Treated (Percent) (pregnancy in rats [1]; [17]): 89%
- Serum Progesterone (Percent Control) (pregnancy in rats [2]; [18]): 124 Percent Control
- Serum Progesterone ng/ml + S.E. (pregnancy in rats [2]; [18]): 54.1 + 2.6 ng/ml
- Adrenal Wt. mg + SE (pregnancy in rats [2]; [19]): 83.4 + 4.0 mg
- Fetal Viability: Normal Fetuses/Implantation Sites (pregnancy in rats [2]; [19]): 80/82
- Fetal Viability: Normal Fetuses/Implantation Sites (Percent) (pregnancy in rats [2]; [19]): 98%
- Number of Rats Pregnant/Number of Rats Treated (pregnancy in rats [2]; [19]): 7/7
- Number of Rats Pregnant/Number of Rats Treated (Percent) (pregnancy in rats [2]; [19]): 100%
- Serum Progesterone (Percent Control) (pregnancy in rats [2]; [20]): 94 Percent Control
- Serum Progesterone ng/ml + S.E. (pregnancy in rats [2]; [20]): 40.8 + 2.2 ng/ml
